Legend:
[1] = test system: LXR in MDA-MB-231 cells; assay: western blot of LXR protein levels; assay type: cell-based
Excerpt: (§1) The inhibitory effects of LXR ligands in breast cancer cells have been shown previously. […] The observed decreases in LXR protein levels were not affected by proteasome inhibitor MG132.

[2] = test system: LXR proteins in MCF-7 cells; assay: western blot of LXR protein levels; assay type: cell-based
Excerpt: as §1

[3] = test system: MDA-MB-231 cells; assay: breast cancer cell proliferation; assay type: cell-based
Excerpt: as §1

[4] = test system: MCF-7 cells; assay: breast cancer cell proliferation; assay type: cell-based
Excerpt: as §1

[5] = test system: HPNE cells; assay: growth of non-transformed pancreatic epithelial cells (WST screen; FIG. 32D); assay type: cell-based, human; details: WST screen
Method: (§2) The initial identification and subsequent characterization of the two novel LXR ligands and their derivative compounds was carried out in screens in three human pancreatic cancer cell and one non-transformed human pancreatic epithelial cell line in three or more replicate experiments for each cell line using the WST tetrazolium salt reduction assays.
(§3) The synthesis and characterization of KD-01-39, a derivative of 3A4, have not been described previously.

[6] = test system: PDAC cells; assay: pro-apoptotic caspase cleavage analysis; assay type: cell-based, human
Method: (§4) To determine if 1E5 and 3A4 can induce apoptosis, PDAC cells were treated with the LXR ligands and subjected to pro-apoptotic caspase cleavage analysis. […] Metabolomic profiling following treatments with the two ligands indicated the activation of two distinct cell death mechanisms. Ferroptosis is a non-apoptotic form of cell death which is characterized by accumulation of lipid peroxides by loss of glutathione peroxidase 4 (GPX4) activity. It can also be induced by accumulation of intracellular iron and depletion of reduced glutathione (GSH). GPX4 is an anti-oxidant enzyme involved in conversion of PUFA peroxides to PUFA alcohols. GSH is a critical cofactor of GPX4 and acts as a reducing agent to reduce the lipid peroxides. Therefore, direct inhibition of GPX4 activity or reduction in GSH levels trigger ferroptosis. The second mechanism of inducing ferroptosis is accumulation of polyunsaturated fatty acids (PUFAs) in cells. Studies have shown that PUFAs are the most susceptible lipids to peroxidation.
Accumulation of C18 ceramides in the mitochondria leads to the recruitment of auto phagosomes in mitochondria and induces LC3-ceramide dependent lethal mitophagy. […] Darkened circles indicate increases and the size of the circle corresponds to the significance of changes.

[7] = test system: LXR ligand-binding domain; assay: TR-FRET assay of co-activator and co-repressor peptide recruitment; assay type: biochemical
Method: (§5) To elucidate mechanisms of inverse agonism by the novel ligands, TR-FRET experiments were conducted to determine the effects of 1E5 and 3A4 on the recruitment of NR co-activators and co-repressors. […] In addition to their functions as inverse agonists, extended treatments with 1E5 and 3A4 also destabilized or decreased LXR proteins.
as §3

[8] = test system: KPC tumor cells; assay: growth of KPC tumor cells from mouse model of PDAC; assay type: cell-based
Excerpt: The effects of the ligands and derivatives on the growth of PDAC cells were further validated by cell counting and clonogenic assays.

[9] = molecular target: T1, LXR proteins (Homo sapiens, UniProt P55055); assay: LXR protein levels after long-term treatment of pancreatic cancer cells; assay type: cell-based; details: long-term treatments
T1 construct: expression of LXR proteins in different pancreatic cancer cell lines following long-term treatments; endogenous in cells; host or cells: pancreatic cancer cell lines (BxPC-3, MIA PaCa-2, PANC-1 named elsewhere)
T1 sequence (P55055 whole entry): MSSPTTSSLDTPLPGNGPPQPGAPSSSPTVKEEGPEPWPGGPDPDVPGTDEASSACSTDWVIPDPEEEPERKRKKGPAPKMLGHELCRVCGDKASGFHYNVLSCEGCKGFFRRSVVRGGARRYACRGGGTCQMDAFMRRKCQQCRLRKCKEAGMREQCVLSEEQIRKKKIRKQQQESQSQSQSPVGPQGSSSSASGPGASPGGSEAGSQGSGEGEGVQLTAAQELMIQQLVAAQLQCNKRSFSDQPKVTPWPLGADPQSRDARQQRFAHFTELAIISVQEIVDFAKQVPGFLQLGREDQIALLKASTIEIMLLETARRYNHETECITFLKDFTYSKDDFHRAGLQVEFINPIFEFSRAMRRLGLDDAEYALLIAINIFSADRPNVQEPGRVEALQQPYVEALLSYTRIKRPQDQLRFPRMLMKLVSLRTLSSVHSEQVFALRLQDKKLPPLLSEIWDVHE
Method: as §5

[10] = test system: PDAC cell lines; assay: tetrazolium salt reduction (WST) assay in PDAC cell lines; assay type: cell-based, human; details: WST screen, three human pancreatic cancer cell lines
Method: To determine the effects of LXR ligands on PDAC cell proliferation, cells were treated with synthetic LXR agonist GW3965 and live cells were quantified using trypan blue exclusion assays. […] FIGS. 8A, 8B, and 8C show dose-dependent decreases in cell proliferation in BxPC-3, Mia-PaCa-2, and PANC-1, respectively upon treatment with increasing GW3965 concentrations. […] Clonogenic assays were also employed to evaluate the effects of long-term LXR ligand treatment on cell proliferation and colony formation. […] These findings indicate that LXRs are involved in PDAC cell proliferation and targeting LXRs with ligands perturb their normal functions in cell proliferation.
as §2

[11] = test system: human PDAC cell lines; assay: cell viability response curves with increasing concentrations; assay type: cell-based
[12] = test system: pancreatic cancer cells; assay: metabolomic analysis using mass spectroscopy in pancreatic cancer cells; assay type: cell-based, human; details: PDAC cells
Method: To further characterize the mechanisms of action of novel LXR modulators 1E5 and 3A4, metabolomic and transcriptomic analysis of pancreatic cancer cells were conducted in response to treatment. […] PDAC tumors have altered metabolism to support its growth and survival. Previous studies have reported that Kras upregulates the non-canonical use of glutamine to maintain NADPH/NADP+ ratio which in turn regulates redox homeostasis. This unconventional use of glutamine by PDAC cells fuel cancer cell proliferation and survival. Glutamine metabolism in PDAC has two unique functions: 1. Glutamine-derived Glutamate is used for glutathione (GSH) biosynthesis. 2. Glutamine facilitates generation of reducing equivalents in the form of NADPH. In PDAC mitochondria, glutamine is converted to glutamate by glutaminase enzyme (GLS1). This glutamine derived glutamate is conventionally converted to alpha-ketoglutarate by glutamate dehydrogenase (GLUD1) to fuel citric acid cycle. However, in PDAC cells glutamate is converted to aspartate in cytosol which is converted to malic acid and NADPH is produced during this process. This process is essential to maintain redox homeostasis in the tumor. However, this non-canonical use of glutamine is dispensable in non-malignant cells. Therefore, targeting GLS1 to decrease the bioavailability of glutamate to act as source of nitrogen and carbon for the synthesis of amino acids and nucleic acids is a viable strategy to target PDAC tumors. […] The effect of 1E5 is similar to BPTES, a potent GLS1 inhibitor.
TCA cycle intermediates act as anaplerotic substrate for gluconeogenesis and lipogenesis. […] GOT2 converts glutamine-derived glutamate to alpha-KG. During this process oxaloacetate is converted to aspartate which is required to maintain redox homeostasis. Studies have shown that inhibition of GOT2 in PDAC promotes senescence.
as §4
Expression profiles of ferroptosis genes in RNAseq data following 1E5 treatment were also consistent with its pro-ferroptotic actions. […] Polyamines are amino-acid derived polycationic alkylamines that are required for the growth of cells. SAT1 catalyzes the acetylation of spermidine and spermine to form N-acetylspermidine and N-acetylspermine respectively. […] SAT1 induces ferroptosis by upregulating the peroxidation of PUFA arachidonic acid. Ceramides are sphingolipids consisting of sphingosine and fatty acid acyl chain. Cellular stress leads to upregulation of ceramide synthesis which mediate caspase-dependent apoptosis. Accumulation of ceramides/hexosylceramides in the mitochondria leads to the formation of channel like structures in the mitochondrial outer membrane which increases the permeability of pro-apoptotic proteins such as cytochrome c. ER stress is also known to activate de-novo synthesis of ceramides and induce apoptosis by increasing the flow of Ca ions and upregulating the unfolded protein stress response. […]

[13] = test system: MDA-MB-231; assay: expression of LXR target genes in breast cancer cells; assay type: cell-based; details: MDA-MB-231, triple-negative
Excerpt: as §1

[14] = test system: MCF-7; assay: as above; assay type: cell-based; details: MCF-7, ER-positive
Excerpt: as §1

[15] = test system: LXR-LBD; assay: differential scanning fluorimetry; assay type: binding
Excerpt: as §3

[16] = test system: LXR target genes SREBF1c, ABCA1, and ABCG1; assay: expression of LXR target genes in pancreatic cancer cell lines; assay type: cell-based, human
Excerpt: To characterize the activity of the newly discovered ligands, the expression of LXR target genes SREBF1c, ABCA1, and ABCG1 was examined following treatment with vehicle, synthetic agonist GW3965, and Compounds 1E5 and 3A4. […] Basal expression of SREBF1c, the canonical LXR target gene involved in the regulation of glucose and lipid metabolism, was disrupted by the addition of novel LXR ligands, whereas their expression was induced following treatment with synthetic agonist GW3965 in all three pancreatic cancer cell lines tested, whereas the effects on ABCA1 and ABCG1 varied between the two novel ligands and across the cell lines.
as §5

Structure (SMILES): COc1cc(OC)cc(C(=O)N2CCN(c3ccccc3C)CC2)c1 [Compound 3A4, 1-(3,5-dimethoxybenzoyl)-4-(2-methylphenyl)piperazine]
- LXR protein levels (degradation) [1]: only 1E5 degraded LXR
- LXR protein levels (degradation) [2]: act as degraders of LXR proteins
- proliferation of MDA-MB-231 cells [3]: inhibited
- proliferation of MCF-7 cells [4]: inhibited the proliferation
- activity against non-transformed HPNE cells [5]: little activity
- pro-apoptotic caspase cleavage [6]: induced pro-apoptotic caspase cleavage
- apoptosis ([6]; PDAC cells): induces caspase-dependent apoptosis
- co-activator peptide binding to LXR ligand-binding domain ([7]; co-activator (D22) peptide): did not affect co-activator peptide binding
- binding of NCOR and SMRT co-repressor peptides ([7]; co-repressor (NCOR and SMRT-ID2) peptides): increased the binding
- growth of KPC tumor cells [8]: blocked the growth
- LXR protein levels [9]: decreased LXR protein levels
- human pancreatic cancer cells growth [10]: effective in inhibiting human pancreatic cancer cells growth
- potency in response curves compared to GW3965 [11]: more potent activity as compared to GW3965
- levels of C18 and C16 ceramides and hexosylceramides [12]: significantly upregulates
- expression of LXR target genes [13]: generally down-regulated
- expression of LXR target genes [14]: generally down-regulated
- LXR-LBD structure and dye dissociation with increasing temperature [15]: disrupted the LBD structure
- basal expression of SREBF1c ([16]; all three pancreatic cancer cell lines): disrupted
- expression of FASN, SCD, and ACC ([16]; pancreatic cancer cells): decreased the expression
- expression of LXR target genes ([16]; three pancreatic cancer cell lines): reducing the expression of LXR target genes
